Measurements from US10947242B2, “[1,2,4]triazolo[1,5and#8208;A]pyrimidine compounds as PDE2 inhibitors” (Janssen Pharmaceutica NV, priority 2016, dated 2021).
Read-outs that look alike come from different tables or passages of the source.

Key:
Type in all cases: biochemical
[1] = target: T1, Human recombinant PDE3A (hPDE3A) (Homo sapiens, UniProt Q14432); experiment: In vitro assay PDE3A (SPA, 3H-cAMP hydrolysis); conditions: for IC50: hPDE3B pIC50, read-out: pIC50 (converted); for Emax: read-out: hPDE3B Emax, read-out: Emax;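 for all read-outs here: the method names PDE3A and the table heading PDE3B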
T1 construct: purchased Scottish Biomedical; host or cells: Sf9 insect cells
Method: Human recombinant PDE3A (hPDE3A) was supplied as a partially purified insect cell lysate by Scottish Biomedical, it was cloned from human brain and expressed in Sf9 cells. Tested compounds were dissolved and diluted in 100% DMSO to a concentration 100 fold of the final concentration in the assay. Compound dilutions (0.4 μl) were added in 384 well plates to 20 μl of incubation buffer (50 mM Tris pH 7.8, 8.3 mM MgCl2, 1.7 mM EGTA). 10 μl of hPDE3A enzyme in incubation buffer was added and the reaction was started by addition of 10 μl substrate to a final concentration of 0.4 μM cAMP and 2.4 μCi/ml [^3H]-cAMP. The reaction was incubated for 60 min at room temperature. […] After sedimentation of the beads during 30 min the radioactivity was measured in a Perkin Elmer Topcount scintillation counter and results were expressed as cpm. For blanc values the enzyme was omitted from the reaction and replaced by incubation buffer. Control values were obtained by addition of a final concentration of 1% DMSO instead of compound.

[2] = target: T2, Human recombinant PDE2A (hPDE2A) (Homo sapiens, UniProt O00408); experiment: In vitro assay PDE2A (SPA, 3H-cGMP hydrolysis); conditions: for IC50: read-out: hPDE2A pIC50 (converted); for Emax: read-out: hPDE2A Emax
T2 construct: His tag (inferred from metal chelate purification); made in house; host or cells: Sf9 insect cells (baculovirus)

[3] = target: T3, Human recombinant PDE10A (hPDE10A) (Homo sapiens, UniProt Q9Y233); experiment: In vitro assay PDE10A, human clone (SPA, 3H-cAMP hydrolysis)
T3 construct: His tag (inferred from metal chelate purification); made in house; host or cells: Sf9 insect cells (baculovirus)
Method: Rat recombinant PDE10A (rPDE10A2) was expressed in Sf9 cells using a recombinant rPDE10A baculovirus construct. […] Tested compounds were dissolved and diluted in 100% DMSO to a concentration 100 fold of the final concentration in the assay. Human recombinant PDE10A ([…]) was expressed in Sf9 cells using a recombinant hPDE10A baculovirus that was made and amplified in house. […] Compound dilutions (0.4 μl) were added in 384 well plates to 20 μl of incubation buffer (50 mM Tris pH 7.8, 8.3 mM MgCl2, 1.7 mM EGTA). 10 μl of rPDE10A or hPDE10A enzyme in incubation buffer was added and the reaction was started by addition of 10 μl substrate to a final concentration of 60 nM cAMP and 0.008 μCi ^3H-cAMP. The reaction was incubated for 60 minutes at room temperature. […] After sedimentation of the beads during 30 minutes the radioactivity was measured in a Perkin Elmer Topcount scintillation counter and results were expressed as cpm. For blanc values the enzyme was omitted from the reaction and replaced by incubation buffer. Control values were obtained by addition of a final concentration of 1% DMSO instead of compound.

[4] = human recombinant PDE2A, 10 μM cGMP substrate
[5] = human clone (h), default, read-out: hPDE10A2 Emax
[6] = human clone (h), default, read-out: hPDE10A2 pIC50 (converted)
[7] = human clone by default (no (r) mark), read-out: hPDE10A2 or rPDE10A2 Emax
[8] = human clone by default (no (r) mark), read-out: hPDE10A2 or rPDE10A2 pIC50 (converted)

T2 sequence (O00408 whole entry): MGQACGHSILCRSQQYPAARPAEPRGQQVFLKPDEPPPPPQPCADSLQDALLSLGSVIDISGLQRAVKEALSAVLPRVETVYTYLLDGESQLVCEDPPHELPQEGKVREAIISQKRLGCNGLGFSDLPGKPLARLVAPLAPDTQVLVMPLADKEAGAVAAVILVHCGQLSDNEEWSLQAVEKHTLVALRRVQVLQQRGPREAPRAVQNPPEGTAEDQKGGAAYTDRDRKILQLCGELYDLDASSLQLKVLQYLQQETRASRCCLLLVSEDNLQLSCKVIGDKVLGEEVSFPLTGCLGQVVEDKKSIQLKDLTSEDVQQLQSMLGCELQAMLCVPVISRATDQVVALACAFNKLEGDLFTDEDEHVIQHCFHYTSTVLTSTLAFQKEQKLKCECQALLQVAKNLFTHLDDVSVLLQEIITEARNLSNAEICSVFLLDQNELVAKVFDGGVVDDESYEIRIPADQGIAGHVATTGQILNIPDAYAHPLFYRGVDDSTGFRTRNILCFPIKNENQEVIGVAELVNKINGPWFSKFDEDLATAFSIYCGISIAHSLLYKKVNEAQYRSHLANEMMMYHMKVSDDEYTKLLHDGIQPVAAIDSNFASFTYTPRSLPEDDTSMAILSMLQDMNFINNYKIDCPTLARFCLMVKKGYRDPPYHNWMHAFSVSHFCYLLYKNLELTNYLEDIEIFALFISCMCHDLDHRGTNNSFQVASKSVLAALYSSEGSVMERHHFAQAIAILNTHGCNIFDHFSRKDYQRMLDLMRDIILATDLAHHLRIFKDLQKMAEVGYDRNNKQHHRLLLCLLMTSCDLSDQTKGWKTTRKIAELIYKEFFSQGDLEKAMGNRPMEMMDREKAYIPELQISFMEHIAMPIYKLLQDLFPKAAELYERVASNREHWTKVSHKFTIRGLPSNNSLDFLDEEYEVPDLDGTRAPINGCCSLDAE
T3 sequence (Q9Y233 267-1055): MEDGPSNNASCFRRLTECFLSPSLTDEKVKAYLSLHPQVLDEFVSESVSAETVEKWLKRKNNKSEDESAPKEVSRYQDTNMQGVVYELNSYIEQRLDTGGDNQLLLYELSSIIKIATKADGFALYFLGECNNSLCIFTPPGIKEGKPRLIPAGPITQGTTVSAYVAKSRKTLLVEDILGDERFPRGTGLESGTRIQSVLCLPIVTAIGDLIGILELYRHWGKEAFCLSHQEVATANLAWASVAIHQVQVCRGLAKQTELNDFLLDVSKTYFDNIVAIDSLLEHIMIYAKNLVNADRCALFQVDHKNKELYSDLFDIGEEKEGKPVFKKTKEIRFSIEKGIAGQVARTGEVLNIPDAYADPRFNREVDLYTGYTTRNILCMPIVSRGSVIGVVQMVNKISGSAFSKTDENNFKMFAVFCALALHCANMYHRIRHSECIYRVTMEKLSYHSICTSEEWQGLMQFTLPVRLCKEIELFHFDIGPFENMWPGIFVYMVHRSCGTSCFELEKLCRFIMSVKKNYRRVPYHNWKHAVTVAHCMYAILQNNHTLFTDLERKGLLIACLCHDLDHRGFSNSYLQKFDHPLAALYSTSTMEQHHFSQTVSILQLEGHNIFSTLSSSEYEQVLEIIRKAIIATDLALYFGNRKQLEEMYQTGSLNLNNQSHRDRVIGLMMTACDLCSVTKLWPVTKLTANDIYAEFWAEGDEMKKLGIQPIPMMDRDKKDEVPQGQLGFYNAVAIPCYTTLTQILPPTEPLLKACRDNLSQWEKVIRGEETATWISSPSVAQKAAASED
T1 sequence (Q14432 whole entry): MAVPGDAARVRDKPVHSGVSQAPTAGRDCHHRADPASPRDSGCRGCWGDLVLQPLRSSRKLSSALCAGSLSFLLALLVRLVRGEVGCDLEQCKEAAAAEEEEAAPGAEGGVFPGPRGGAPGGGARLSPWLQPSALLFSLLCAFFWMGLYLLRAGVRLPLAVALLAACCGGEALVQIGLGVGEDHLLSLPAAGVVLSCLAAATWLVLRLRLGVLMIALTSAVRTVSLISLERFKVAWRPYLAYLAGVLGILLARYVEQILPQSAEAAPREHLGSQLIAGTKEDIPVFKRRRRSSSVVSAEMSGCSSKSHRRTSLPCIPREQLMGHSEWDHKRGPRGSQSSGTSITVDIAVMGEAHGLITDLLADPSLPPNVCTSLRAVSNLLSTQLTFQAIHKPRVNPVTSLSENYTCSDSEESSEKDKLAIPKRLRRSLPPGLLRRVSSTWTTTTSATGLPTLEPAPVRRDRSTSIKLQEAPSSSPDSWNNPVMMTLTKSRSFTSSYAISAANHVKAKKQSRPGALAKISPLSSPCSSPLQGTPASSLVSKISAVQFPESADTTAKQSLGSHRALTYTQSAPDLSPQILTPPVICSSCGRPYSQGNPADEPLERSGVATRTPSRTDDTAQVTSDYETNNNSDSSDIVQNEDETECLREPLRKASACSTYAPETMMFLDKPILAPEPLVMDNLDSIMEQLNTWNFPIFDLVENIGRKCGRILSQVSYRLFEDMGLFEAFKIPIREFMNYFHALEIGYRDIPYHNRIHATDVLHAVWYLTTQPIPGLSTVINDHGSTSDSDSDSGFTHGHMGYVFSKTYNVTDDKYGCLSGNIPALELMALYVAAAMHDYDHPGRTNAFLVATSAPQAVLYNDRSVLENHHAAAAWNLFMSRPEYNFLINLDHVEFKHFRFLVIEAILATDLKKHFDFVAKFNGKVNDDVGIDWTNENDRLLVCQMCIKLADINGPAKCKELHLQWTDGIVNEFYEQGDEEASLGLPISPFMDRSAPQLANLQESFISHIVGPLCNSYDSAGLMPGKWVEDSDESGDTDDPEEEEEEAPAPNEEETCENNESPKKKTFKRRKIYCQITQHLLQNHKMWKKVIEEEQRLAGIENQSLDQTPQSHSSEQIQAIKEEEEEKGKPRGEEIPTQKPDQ

| Structure (SMILES) | IC50 [1] [nM] | Emax [1] [%] | IC50 [2, 4] [nM] | Emax ([2]; human recombinant PDE2A) [%] | Emax [2] [%] | IC50 [2] [nM] | Emax [3, 5] [%] | IC50 [3, 6] [nM] | Emax [3, 7] [%] | IC50 [3, 8] [nM] |
| --- | --- | --- | --- | --- | --- | --- | --- | --- | --- | --- |
| C[C@@H]1CCN(C(=O)c2ccnn2C)C[C@H]1c1cc(C(F)F)nc2ncnn12 [Compound 57] | > 10000 | 21 | 27.5 | 100 | 100 | 27.5 | 78 | 3160 | – | – |
| Cc1csc2ccc(C(=O)N3CC[C@@H](C)[C@H](c4cc(C(F)F)nc5ncnn45)C3)nc12 [Compound 100] | 269 | 99 | 0.661 | 101 | 101 | 0.661 | 100 | 16.2 | – | – |
| C[C@@H]1CCN(C(=O)c2ncccc2C(F)(F)F)C[C@H]1c1cc(C(F)F)nc2ncnn12 [Compound 253] | > 10000 | 17 | – | – | 95 | 457 | 39 | > 10000 | 39 | > 10000 |
| Cn1ncc2cc(C(=O)N3[C@H]4CC[C@H](c5cc(C(F)F)nc6ncnn56)[C@@H]3CC4)ccc21 [Compound 380] | 3980 | 72 | – | – | 101 | 5.5 | – | – | 96 | 363 |
| O=C(c1ccc(F)c(OC(F)F)c1)N1[C@H]2CC[C@H](c3cc(C(F)F)nc4ncnn34)[C@@H]1CC2 [Compound 345] | 8320 | 48 | – | – | 99 | 75.9 | – | – | 72 | 3720 |
| Cc1cc([C@@H]2CN(C(=O)c3cc(C4CC4)ncc3C3CC3)CC[C@H]2C)n2ncnc2n1 [Compound 390] | 2570 | 84 | – | – | 98 | 2.09 | – | – | 99 | 61.7 |
| COc1nc(C2CC2)cc(C(=O)N2CC[C@@H](C)[C@H](c3cc(C(F)F)nc4ncnn34)C2)c1F [Compound 276] | 1290 | 93 | – | – | 100 | 2.24 | – | – | 98 | 166 |
| C[C@@H]1CCN(C(=O)c2ccc(C(F)(F)F)nc2Cl)C[C@H]1c1cc(C(F)F)nc2ncnn12 [Compound 242] | 6170 | 67 | 135 | 97 | 97 | 135 | 56 | 8130 | 56 | 8130 |
| Cc1cc(C(=O)N2CC[C@H](C)[C@@](F)(c3cc(C(F)F)nc4ncnn34)C2)cc(C2CC2)n1 [Compound 24a] | > 10000 | 31 | 2570 | 80 | 80 | 2570 | 23 | > 10000 | – | – |
| CN1CCOc2cc(C(=O)N3[C@H]4CC[C@H](c5cc(C(F)F)nc6ncnn56)[C@@H]3CC4)ccc21 [Compound 378] | 759 | 96 | – | – | 99 | 1.7 | – | – | 97 | 407 |
| CC(C)c1n[nH]cc1C(=O)N1CC[C@@H](C)[C@H](c2cc(C(F)F)nc3ncnn23)C1 [Compound 61] | > 10000 | 45 | 4.37 | 101 | 101 | 4.37 | 92 | 457 | – | – |
| Cc1oncc1C(=O)N1CC[C@@H](C)[C@H](c2cc(C(F)F)nc3ncnn23)C1 [Compound 260] | > 10000 | 23 | – | – | 97 | 138 | 74 | 2950 | 74 | 2950 |
